Test results taken from patent publication US9422285B2, “Substituted pyrazolo[1,5-A]-pyridine-3-carboxamides and use thereof” (Bayer Pharma Aktiengesellschaft, priority 2014, dated 2016).

Tests used:
[1] = target: T1, recombinant guanylate cyclase reporter cell line (Rattus norvegicus, UniProt P19686+P20595); assay: Effect on a recombinant guanylate cyclase reporter cell line (B-2); format: cell-based; settings: in some cases mean values for individual determinations
T1 construct: expressed in transfected cells
T1 sequence (P19686 1-690): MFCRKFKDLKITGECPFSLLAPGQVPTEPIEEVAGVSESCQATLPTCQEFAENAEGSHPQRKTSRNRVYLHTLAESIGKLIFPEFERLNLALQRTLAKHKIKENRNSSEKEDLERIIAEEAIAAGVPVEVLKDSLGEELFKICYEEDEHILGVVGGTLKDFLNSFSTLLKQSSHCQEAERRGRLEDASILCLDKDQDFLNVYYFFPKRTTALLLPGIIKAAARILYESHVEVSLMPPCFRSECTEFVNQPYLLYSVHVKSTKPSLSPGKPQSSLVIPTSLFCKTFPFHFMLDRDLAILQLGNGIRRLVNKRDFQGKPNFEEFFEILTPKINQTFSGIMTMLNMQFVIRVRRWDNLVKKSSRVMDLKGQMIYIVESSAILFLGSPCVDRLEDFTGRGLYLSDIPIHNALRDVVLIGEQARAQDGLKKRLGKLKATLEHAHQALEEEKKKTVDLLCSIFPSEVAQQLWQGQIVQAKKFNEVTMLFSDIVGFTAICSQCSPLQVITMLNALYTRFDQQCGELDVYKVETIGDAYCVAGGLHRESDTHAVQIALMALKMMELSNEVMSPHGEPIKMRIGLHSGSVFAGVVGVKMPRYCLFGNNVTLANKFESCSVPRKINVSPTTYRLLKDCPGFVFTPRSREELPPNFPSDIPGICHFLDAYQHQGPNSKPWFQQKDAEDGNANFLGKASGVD
T1 sequence (P20595 1-619): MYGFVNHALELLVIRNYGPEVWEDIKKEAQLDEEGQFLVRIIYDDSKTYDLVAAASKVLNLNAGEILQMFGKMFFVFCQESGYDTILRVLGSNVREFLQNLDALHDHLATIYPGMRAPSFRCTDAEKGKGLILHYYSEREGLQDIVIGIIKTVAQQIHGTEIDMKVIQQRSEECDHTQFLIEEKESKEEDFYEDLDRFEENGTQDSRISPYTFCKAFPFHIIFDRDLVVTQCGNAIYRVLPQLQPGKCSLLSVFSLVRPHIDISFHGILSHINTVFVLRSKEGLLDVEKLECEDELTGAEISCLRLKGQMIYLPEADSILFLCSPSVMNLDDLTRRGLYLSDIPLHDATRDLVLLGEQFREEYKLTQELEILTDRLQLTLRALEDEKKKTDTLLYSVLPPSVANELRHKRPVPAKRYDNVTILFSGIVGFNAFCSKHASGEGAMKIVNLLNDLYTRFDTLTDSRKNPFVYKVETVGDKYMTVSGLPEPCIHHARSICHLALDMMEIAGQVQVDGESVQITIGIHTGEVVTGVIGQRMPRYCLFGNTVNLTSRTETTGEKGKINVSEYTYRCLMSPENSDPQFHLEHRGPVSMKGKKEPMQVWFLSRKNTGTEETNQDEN
Method: B-2. Effect on a Recombinant Guanylate Cyclase Reporter Cell Line
The cellular effect of the inventive compounds is determined using a recombinant guanylate cyclase reporter cell line, as described in F. Wunder et al., Anal. Biochem. 339, 104-112 (2005).
Representative MEC values (MEC=minimum effective concentration) for the inventive compounds are shown in the table below (in some cases as mean values for individual determinations): […]

[2] = Pharmacokinetic parameters following intravenous administration in rats (B-6); format: in vivo, male Wistar rats; settings: for MRT / half-life: male, Wistar, rat, plasma; for MRT: mean residence time; for half-life: terminal half-life
From the text: • Klaus Witte, Kai Hu, Johanna Swiatek, Claudia Müssig, Georg Ertl and Bjorn Lemmer: Experimental heart failure in rats: effects on cardiovascular circadian rhythms and on myocardial β-adrenergic signaling. Cardiovasc Res 47 (2): […], 2000; Kozo Okamoto: Spontaneous hypertension in rats. Int Rev Exp Pathol 7: 227-270, 1969; Maarten van den Buuse: Circadian Rhythms of Blood Pressure, Heart Rate, and Locomotor Activity in Spontaneously Hypertensive Rats as Measured With Radio-Telemetry. Physiology & Behavior 55(4): 783-787, 1994 B-6. Determination of Pharmacokinetic Parameters Following Intravenous and Oral Administration
The pharmacokinetic parameters of the inventive compounds are determined in male CD-1 mice, male Wistar rats and female beagles. Intravenous administration in the case of mice and rats is effected by means of a species-specific plasma/DMSO formulation, and in the case of dogs by means of a water/PEG400/ethanol formulation. In all species, oral administration of the dissolved substance is performed via gavage, based on a water/PEG400/ethanol formulation. The removal of blood from rats is simplified by inserting a silicone catheter into the right Vena jugularis externa prior to substance administration. The operation is effected at least one day prior to the experiment with isofluran anaesthesia and administration of an analgesic (atropine/rimadyl (3/1) 0.1 ml s.c.). The blood is taken (generally more than 10 time points) within a time window including terminal time points of at least 24 to a maximum of 72 hours after substance administration. The blood is removed into heparinized tubes. The blood plasma is then obtained by centrifugation; if required, it can be stored at −20° C. until further processing.
An internal standard (which may also be a chemically unrelated substance) is added to the samples of the inventive compounds, calibration samples and qualifiers, and there follows protein precipitation by means of acetonitrile in excess. Addition of a buffer solution matched to the LC conditions, and subsequent vortexing, is followed by centrifugation at 1000 g. The supernatant is analysed by means of LC-MS/MS using C18 reversed-phase columns and variable mobile phase mixtures. The substances are quantified via the peak heights or areas from extracted ion chromatograms of specific selected ion monitoring experiments.
The plasma concentration/time plots determined are used to calculate the pharmacokinetic parameters such as AUC, Cmax, t1/2 (terminal half-life), F (bioavailability), MRT (mean residence time) and CL (clearance), by means of a validated pharmacokinetic calculation program.
Since the substance quantification is performed in plasma, it is necessary to determine the blood/plasma distribution of the substance in order to be able to adjust the pharmacokinetic parameters correspondingly. For this purpose, a defined amount of substance is incubated in heparinized whole blood of the species in question in a rocking roller mixer for 20 min. After centrifugation at 1000 g, the plasma concentration is measured (by means of LC-MS/MS; see above) and determined by calculating the ratio of the Cblood/Cplasma value.

SMILES	MEC (minimum effective concentration) [1] [µM]	AUCnormal [2] [kg·h/L]	CLblood [2] [mL/min/kg]	MRT [2] [h]	half-life [2] [h]
CCCC(C)(N)CNC(=O)c1c(C2CC2)nn2c(OCc3c(F)cccc3F)cc(C)cc12 (single isomer, unassigned) [Example 55, ent-N-(2-Amino-2-methylpentyl)-2-cyclopropyl-7-[(2,6-difluorobenzyl)oxy]-5-methylpyrazolo[1,5-a]pyridine-3-carboxamide]	0.1	0.37	46	3.5	2.6
CCCC(C)(N)CNC(=O)c1c(C)nn2c(OCc3c(F)cccc3F)cc(C)cc12 (single isomer, unassigned) [Example 39, ent-N-(2-Amino-2-methylpentyl)-7-[(2,6-difluorobenzyl)oxy]-2,5-dimethylpyrazolo[1,5-a]pyridine-3-carboxamide]	0.3	0.53	41	7.8	6.2
CSCCC(N)CNC(=O)c1c(C)nn2c(OCc3c(F)cccc3F)cc(C)cc12 (racemic) [Example 156, rac-N-[2-Amino-4-(methylsulphanyl)butyl]-7-[(2,6-difluorobenzyl)oxy]-2,5-dimethylpyrazolo[1,5-a]pyridine-3-carboxamide]	0.3				
Cc1cc(OCc2c(F)cccc2F)n2nc(C)c(C(=O)N[C@@H](CC(=O)O)CC(C)C)c2c1 [Example 38, (3R)-3-[({7-[(2,6-Difluorobenzyl)oxy]-2,5-dimethylpyrazolo[1,5-a]pyridin-3-yl}carbonyl)amino]-5-methylhexanoic Acid]	3.0				
Cc1cc(OCc2c(F)cccc2F)n2nc(C)c(C(=O)NCC(C)(N)CCC(F)(F)F)c2c1 (single isomer, unassigned) [Example 43, ent-N-(2-Amino-5,5,5-trifluoro-2-methylpentyl)-7-[(2,6-difluorobenzyl)oxy]-2,5-dimethylpyrazolo[1,5-a]pyridine-3-carboxamide]	0.1	0.49	42.7	7.4	5.9
COc1ccc(CC(C)(N)CNC(=O)c2c(C)nn3c(OCc4c(F)cccc4F)cc(C)cc23)cc1 (racemic) [Example 99, rac-N-[2-Amino-3-(4-methoxyphenyl)-2-methylpropyl]-7-[(2,6-difluorobenzyl)oxy]-2,5-dimethylpyrazolo[1,5-a]pyridine-3-carboxamide]	0.1				
CC(=O)NCCNC(=O)c1c(C)nn2c(OCc3c(F)cccc3F)cc(C)cc12 [Example 96, N-(2-Acetamidoethyl)-7-[(2,6-difluorobenzyl)oxy]-2,5-dimethylpyrazolo[1,5-a]pyridine-3-carboxamide]	10				
Cc1cc(OCc2c(F)ccc(F)c2F)n2nc(C)c(C(=O)Nc3c(C)nn(Cc4ccc(F)cc4)c3C)c2c1 [Example 16, N-[1-(4-Fluorobenzyl)-3,5-dimethyl-1H-pyrazol-4-yl]-2,5-dimethyl-7-[(2,3,6-trifluorobenzyl)oxy]pyrazolo[1,5-a]pyridine-3-carboxamide]	0.3				

Other lines, results leading:

MEC (minimum effective concentration) [1] [µM]	AUCnormal [2] [kg·h/L]	CLblood [2] [mL/min/kg]	MRT [2] [h]	half-life [2] [h]	SMILES
0.2	0.44	36.8	4.9	4	CCCC(C)(N)CNC(=O)c1c(C2CC2)nn2c(OCc3c(F)ccc(F)c3F)cc(C)cc12 (single isomer, unassigned; enantiomer b) [Example 169, ent-N-(2-Amino-2-methylpentyl)-2-cyclopropyl-5-methyl-7-[(2,3,6-trifluorobenzyl)oxy]pyrazolo[1,5-a]pyridine-3-carboxamide (Enantiomer B)]
0.1	0.32	48.7	3.4	2.6	Cc1cc(OCc2c(F)ccc(F)c2F)n2nc(C3CC3)c(C(=O)NCC(C)(N)CCC(F)(F)F)c2c1 (single isomer, unassigned; enantiomer b) [Example 170, ent-N-(2-Amino-5,5,5-trifluoro-2-methylpentyl)-2-cyclopropyl-5-methyl-7-[(2,3,6-trifluorobenzyl)oxy]pyrazolo[1,5-a]pyridine-3-carboxamide (Enantiomer B)]
0.1	0.45	36.5	4.3	3.2	Cc1cc(OCc2c(F)ccc(F)c2F)n2nc(C)c(C(=O)NCC(C)(N)CCC(F)(F)F)c2c1 (single isomer, unassigned; enantiomer b) [Example 168, ent-N-(2-Amino-5,5,5-trifluoro-2-methylpentyl)-2,5-dimethyl-7-[(2,3,6-trifluorobenzyl)oxy]pyrazolo[1,5-a]pyridine-3-carboxamide (Enantiomer B)]
3.0					CCCC(C)(N)CNC(=O)c1c(C)nn2c(OCc3c(F)cccc3F)cccc12 (racemic) [Example 163, rac-N-(2-Amino-2-methylpentyl)-7-[(2,6-difluorobenzyl)oxy]-2-methylpyrazolo[1,5-a]pyridine-3-carboxamide]
10					CCCC(C)(N)CNC(=O)c1c(C)nn2c(OCc3ncccc3F)cc(C)cc12 (racemic) [Example 166, rac-N-(2-Amino-2-methylpentyl)-7-[(3-fluoropyridin-2-yl)methoxy]-2,5-dimethylpyrazolo[1,5-a]pyridine-3-carboxamide]
